Assay results from paper PMC8531348, “Design, synthesis, biological evaluation, and molecular modeling studies of pyrazole-benzofuran hybrids as new α-glucosidase inhibitor” (Scientific Reports, 2021).
“And” between values parts separate entries of the source, which are not always exact repeats. Identical values can stand only once. Like-named read-outs stand apart in the source and are kept apart here.

Key:
[1] = molecular target: T1, α-glucosidase enzyme (from Saccharomyces cerevisiae, EC3.2.1.20) (Saccharomyces cerevisiae, UniProt P53341); assay: biochemical; assay type: biochemical; conditions: for fold more potent than the standard acarbose: ratio of IC50 versus acarbose
T1 construct: purchased Sigma Chemical Co. (St. Louis, USA)
T1 sequence (P53341 whole entry): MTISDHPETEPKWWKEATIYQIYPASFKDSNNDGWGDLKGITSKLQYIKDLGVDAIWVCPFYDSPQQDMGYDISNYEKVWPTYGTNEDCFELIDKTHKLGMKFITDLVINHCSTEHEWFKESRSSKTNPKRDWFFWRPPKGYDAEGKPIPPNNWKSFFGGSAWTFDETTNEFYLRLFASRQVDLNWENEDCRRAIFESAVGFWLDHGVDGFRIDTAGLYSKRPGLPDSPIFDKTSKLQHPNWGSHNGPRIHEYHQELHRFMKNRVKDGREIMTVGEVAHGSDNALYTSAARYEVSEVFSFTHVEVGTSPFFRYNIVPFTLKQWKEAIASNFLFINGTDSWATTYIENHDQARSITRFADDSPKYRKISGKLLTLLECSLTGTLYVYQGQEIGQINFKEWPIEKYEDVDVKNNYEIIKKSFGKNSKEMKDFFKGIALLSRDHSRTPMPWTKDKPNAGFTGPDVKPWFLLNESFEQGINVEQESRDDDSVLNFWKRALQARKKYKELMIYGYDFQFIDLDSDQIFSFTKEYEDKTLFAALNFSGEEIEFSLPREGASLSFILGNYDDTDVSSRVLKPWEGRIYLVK
Protocol: The α-glucosidase enzyme (from Saccharomyces cerevisiae, EC3.2.1.20) was used to evaluate the α-glucosidase inhibitory activity. […] Therefore, α-glucosidase from yeast is extensively used for the preliminary screening of α-glucosidase inhibitors[47],[48]. […] Stock solutions of the test compounds and acarbose were prepared in DMSO and eventually diluted with phosphate buffer saline to attain the desired concentration. […] The percentage of enzyme inhibition for each entry was calculated using the following formula:
% Inhibition = [(Abs control—Abs sample)/Abs control] × 100.

α-glucosidase = molecular target: T2, α-glucosidase (Saccharomyces cerevisiae, UniProt P53341); assay: Kinetic study of α-glucosidase inhibition (Lineweaver–Burk plots); assay type: biochemical
T2 construct: purchased Sigma Chemical Co. (St. Louis, USA)
T2 sequence (P53341 whole entry): as above
Protocol: In different concentrations of test compound (0, 10, 25, and 40 µM) and with the incremental concentration (2–10 mM) of substrate, the rate of the enzyme activity was calculated. The type of inhibition and experimental inhibition constant (Ki) value were determined by employing Lineweaver–Burk plots and secondary re-plot of these plots, respectively. […] This pattern indicates a competitive type of inhibition.
The kinetics of enzyme inhibition was performed according to the reaction conditions in 2.5 by preparing a series of test solutions in which the concentration of the substrate (PNPG) was varied (2–10 mM) in the absence and presence of compound 8e at different concentrations (0, 10, 25, and 40 µM). A Lineweaver–Burk plot was generated to identify the type of inhibition and the Michaelis–Menten constant (Km) value was determined from the plot between reciprocal of the substrate concentration (1/[S]) and reciprocal of enzyme rate (1/V) over various inhibitor concentrations. The experimental inhibitor constant (Ki) value was constructed by secondary plots of the inhibitor concentration [I] versus Km.

[2] = Cytotoxicity against normal 3T3 cell line by MTT assay; assay type: cell-based; conditions: mouse, 3T3 cells (normal cell line); MTT assay, normal 3T3 cell line
Protocol: (§1) The results of cytotoxic activity were expressed as the IC50 (µM) and outlined in Table 2.
(§2) The cytotoxicity of the compounds 8e, 8l, 8f and 8n was determined using the 3-(4,5 Dimethylthiazol-2-yl)-2,5-diphenyltetrazolium bromide (MTT) assay according to previously described methods.

3T3 cell line = assay: as above; assay type: cell-based; conditions: at 150 µM concentration, 3T3, MTT
Protocol: as §1, §2

O=C(NN=Cc1cn(-c2ccccc2)nc1-c1ccccc1)c1cc2ccccc2o1 [8a, N'-((1,3-Diphenyl-1H-pyrazol-4-yl)methylene)benzofuran-2-carbohydrazide]
melting point: 210 to 211 °C
IC50 [1]: 141.2 ± 1.4 µM

Cc1ccc(-c2nn(-c3ccccc3)cc2C=NNC(=O)c2cc3ccccc3o2)cc1 [8b, N'-((1-Phenyl-3-p-tolyl-1H-pyrazol-4-yl)methylene)benzofuran-2-carbohydrazide]
melting point: 234 to 235 °C
IC50 [1]: 108.3 ± 0.8 µM

COc1ccc(-c2nn(-c3ccccc3)cc2C=NNC(=O)c2cc3ccccc3o2)cc1 [8c, N'-((3-(4-Methoxyphenyl)-1-phenyl-1H-pyrazol-4-yl)methylene)benzofuran-2-carbohydrazide]
melting point: 207 to 209 °C
IC50 [1]: 100.3 ± 0.7 µM

O=C(N/N=C/c1cn(-c2ccccc2)nc1-c1ccc(O)cc1)c1cc2ccccc2o1 [8d, (E)-N'-((3-(4-hydroxyphenyl)-1-phenyl-1H-pyrazol-4-yl)methylene)benzofuran-2-carbohydrazide]
melting point: 280 to 281 °C
IC50 [1]: 133.6 ± 1.2 µM

O=C(NN=Cc1cn(-c2ccccc2)nc1-c1ccc([N+](=O)[O-])cc1)c1cc2ccccc2o1 [8e, N'-((3-(4-Nitrophenyl)-1-phenyl-1H-pyrazol-4-yl)methylene)benzofuran-2-carbohydrazide]
type of inhibition (α-glucosidase; Lineweaver–Burk plot): competitive
Ki (α-glucosidase; secondary re-plot of Lineweaver–Burk plots, 0, 10, 25, 40 µM inhibitor, substrate 2–10 mM, read-out: inhibition constant Ki): ~38 µM and 38 µM
IC50 [2]: > 150 µM
cytotoxicity against normal cell line (3T3 cell line): noncytotoxic
IC50 ([1]; mean ± SD, at least three experiments, substrate p-nitrophenyl-α-glucopyranoside, read-out: IC50 α-glucosidase inhibitory activity): 40.6 ± 0.2 µM
fold more potent than the standard acarbose [1]: approximately 18 fold

O=C(NN=Cc1cn(-c2ccccc2)nc1-c1ccc(Br)cc1)c1cc2ccccc2o1 [8f, N'-((3-(4-Bromophenyl)-1-phenyl-1H-pyrazol-4-yl)methylene)benzofuran-2-carbohydrazide]
melting point: 243 to 245 °C
IC50 [2]: > 150 µM
cytotoxicity against normal cell line (3T3 cell line): noncytotoxic
IC50 [1]: 79.7 ± 0.5 µM
fold more potent than the standard acarbose [1]: nine-fold

O=C(NN=Cc1cn(-c2ccccc2)nc1-c1ccc(Cl)cc1)c1cc2ccccc2o1 [8g, N'-((3-(4-Chlorophenyl)-1-phenyl-1H-pyrazol-4-yl)methylene)benzofuran-2-carbohydrazide]
melting point: 241 to 243 °C
IC50 [1]: 125.3 ± 1 µM

O=C(NN=Cc1cn(-c2ccccc2)nc1-c1ccc(F)cc1)c1cc2ccccc2o1 [8h, N'-((3-(4-Fluorophenyl)-1-phenyl-1H-pyrazol-4-yl)methylene)benzofuran-2-carbohydrazide]
melting point: 253 to 254 °C
IC50 [1]: 164 ± 1.8 µM

O=C(NN=Cc1cn(-c2ccccc2)nc1-c1ccc(C(F)(F)F)cc1)c1cc2ccccc2o1 [8i, N'-((1-Phenyl-3-(4-(trifluoromethyl)phenyl)-1H-pyrazol-4-yl)methylene)benzofuran-2-carbohydrazide]
melting point: 217 to 218 °C
IC50 [1]: 101.7 ± 0.7 µM

Cc1ccc(-n2cc(C=NNC(=O)c3cc4ccccc4o3)c(-c3ccccc3)n2)cc1 [8j, N'-((3-Phenyl-1-p-tolyl-1H-pyrazol-4-yl)methylene)benzofuran-2-carbohydrazide]
melting point: 255 to 256 °C
IC50 [1]: 157 ± 1.6 µM

Cc1ccc(-c2nn(-c3ccc(C)cc3)cc2C=NNC(=O)c2cc3ccccc3o2)cc1 [8k, N'-((1,3-Dip-tolyl-1H-pyrazol-4-yl)methylene)benzofuran-2-carbohydrazide]
melting point: 259 to 261 °C
IC50 [1]: 115.6 ± 0.9 µM

COc1ccc(-c2nn(-c3ccc(C)cc3)cc2C=NNC(=O)c2cc3ccccc3o2)cc1 [8l, N'-((3-(4-Methoxyphenyl)-1-p-tolyl-1H-pyrazol-4-yl)methylene)benzofuran-2-carbohydrazide]
melting point: 230 to 232 °C
IC50 [2]: > 150 µM
cytotoxicity against normal cell line (3T3 cell line): noncytotoxic
IC50 [1]: 54.7 ± 0.3 µM
increase in activity compared with compound 8c ([1]; effect of methyl group on R2): two-fold
fold more potent than the standard acarbose [1]: > 13 fold

Cc1ccc(-n2cc(C=NNC(=O)c3cc4ccccc4o3)c(-c3ccc(O)cc3)n2)cc1 [8m, N'-((3-(4-Hydroxyphenyl)-1-p-tolyl-1H-pyrazol-4-yl)methylene)benzofuran-2-carbohydrazide]
melting point: 293 to 295 °C
IC50 [1]: 127 ± 1 µM

Cc1ccc(-n2cc(C=NNC(=O)c3cc4ccccc4o3)c(-c3ccc(Br)cc3)n2)cc1 [8n, N'-((3-(4-Bromophenyl)-1-p-tolyl-1H-pyrazol-4-yl)methylene)benzofuran-2-carbohydrazide]
melting point: 258 to 259 °C
IC50 [2]: > 150 µM
cytotoxicity against normal cell line (3T3 cell line): noncytotoxic
IC50 [1]: 95.6 ± 0.6 µM
fold more potent than the standard acarbose [1]: approximately eight-fold

Cc1ccc(-n2cc(C=NNC(=O)c3cc4ccccc4o3)c(-c3ccc(Cl)cc3)n2)cc1 [8o, N'-((3-(4-Chlorophenyl)-1-p-tolyl-1H-pyrazol-4-yl)methylene)benzofuran-2-carbohydrazide]
melting point: 248 to 249 °C
IC50 [1]: 155 ± 1.6 µM
